Where “and” joins values, the source holds several entries; their conditions need not be identical. Equal entries are not always repeated. Calls of active or inactive are those of the source. No rule for the calls is given here.
Assay: non-covalent RecA intein splicing inhibitors, dose response, biochemical, cell-free, fluorescence, secondary screen (AID 449750)
In the case of CCCCCCCCCCOC(=O)Cn1c(COc2cccc(C)c2)[n+](C)c2ccccc21, the AC50 is reported as 7.35 µM.
With O=C(N/N=C/c1ccc([N+](=O)[O-])o1)c1ccc(O)cc1 the AC50 was > 38 µM (inactive).
For COc1ccccc1NC(=O)C1=C(C)Nc2nnnn2C1c1ccncc1 (stereo unspecified), the AC50 was > 38 µM (inactive).
With CS(=O)(=O)N1CCC(Oc2ccccc2C(=O)N2CCCCC2CO)CC1 (stereo unspecified) the AC50 was > 38 µM (inactive).
O=C1C=C(N(CCO)Cc2ccccc2)c2ccccc2C1=O showed an AC50 of 4.49 µM.
For Cc1ccc2[nH]c3c(c2c1)CN(C(=O)CN1CCSCC1)CC3, the AC50 was > 38 µM (inactive).
With CN(C)c1ccc(NC(=O)c2ccncc2)c2ccccc12 the AC50 was > 38 µM (inactive).
With CC(=O)c1ccc(OC(=O)c2cccs2)cc1 the AC50 was > 38 µM (inactive).
Cc1ccc(C)c(S(=O)(=O)/N=C2\C=C(NS(=O)(=O)c3ccccc3)C(=O)c3ccccc32)c1 gave an AC50 of 2.79 µM.
With Cc1nn(-c2ccccc2)c(Cl)c1/C=C1\SC(=S)N(CCCCCC(=O)O)C1=O the AC50 was 14.8 µM.
With CC1=NN(c2ccc(N)cc2)C(=O)C1 the AC50 was 3.44 µM.
Work on Cc1[nH][nH]c(=O)c1C(c1cc([N+](=O)[O-])ccc1O)c1c(C)[nH][nH]c1=O yielded an AC50 of 14.6 µM.
Compound Nc1ccc(N)c(C(=O)O)c1 has an AC50 of 21 µM.
Cn1nc(-c2ccc(Cl)cc2)nc2c(=O)n(C)c(=O)nc1-2 showed an AC50 of 0.0579 µM.
For O=[N+]([O-])/C(C(Cl)=C(Cl)Cl)=C(/Sc1ccccc1)N1CCCCC1, the AC50 was > 38 µM (inactive).
In the case of CC(=O)NC(=S)c1c(N)n(Cc2ccccc2)c(=O)n(C)c1=O, the AC50 is reported as > 38 µM (inactive).
In the case of COc1ccccc1-c1cn[nH]c(=S)n1, the AC50 is reported as > 38 µM (inactive).
In the case of CC(=O)Oc1ccc2c(=O)oc(-c3ccccc3C)nc2c1, the AC50 is reported as > 38 µM (inactive).
In the case of O=C(O)c1ccc2c3c(ncnc13)-c1ccccc1C2=O, the AC50 is reported as 7.47 µM.
In the case of CCSc1nnc(NC(=O)c2nc(S(=O)(=O)Cc3ccc(F)cc3)ncc2Cl)s1, the AC50 is reported as > 38 µM (inactive).
In the case of COc1cc(/C=C/c2cc[n+](C)cc2)ccc1OCC(=O)Nc1ccc(Cl)c(Cl)c1, the AC50 is reported as > 38 µM (inactive).
With N#Cc1ccc(-n2c(-c3ccccc3)nnc2-c2ccccc2)cc1C#N the AC50 was > 38 µM (inactive).
In the case of Cc1nn(-c2ccccc2)c2c1C(c1ccncc1)C(C#N)=C(N)O2 (stereo unspecified), the AC50 is reported as > 38 µM (inactive).
In the case of Cc1ccc(NC(=O)C2=C(c3ccccc3)S(=O)(=O)CCS2(=O)=O)cc1, the AC50 is reported as > 38 µM (inactive).
CC1(C)C=C2C(=NN(c3ccccc3)C(N)=C2C#N)CO1 showed an AC50 of 3.43 µM.
CCn1c(Cl)c(C=O)s/c1=N\S(=O)(=O)c1ccccc1 gave an AC50 of 2.44 µM.
For COc1cccc(C(=O)O/N=C(\N)c2ccc([N+](=O)[O-])cc2)c1OC, the AC50 was > 38 µM (inactive).
In the case of CCN(CC)c1ccc(/C=N/Nc2nc(C)cc(=O)[nH]2)c(O)c1, the AC50 is reported as > 38 µM (inactive).
In the case of CC1(C)CC2(C)OC(=N)C1(C#N)C2(C#N)C#N (stereo unspecified), the AC50 is reported as > 38 µM (inactive).
With Cc1cccc(CS(=O)(=O)c2ncc(Cl)c(C(=O)NCc3ccc4c(c3)OCO4)n2)c1 the AC50 was > 38 µM (inactive).
In the case of O=C(NC1C(=O)NNC1c1ccc(Cl)cc1)c1ccc(F)cc1 (stereo unspecified), the AC50 is reported as > 38 µM (inactive).
In the case of O=C(CNC1=NCCC1)c1ccc(Cl)cc1, the AC50 is reported as > 38 µM (inactive).
For O=C(NC1CCCC1)C(c1ccc(F)cc1)N(Cc1ccc(Cl)cc1)C(=O)CCl (stereo unspecified), the AC50 was 5.55 µM.
In the case of O=C1C(Cl)=C(N2CCCCC2)C(=O)N1c1ccccc1, the AC50 is reported as > 12 µM (inactive).
In the case of COc1nc(N/N=C/c2ccc(-c3ccccc3[N+](=O)[O-])o2)nc(N2CCOCC2)n1, the AC50 is reported as 23.2 µM.
With O=C(Oc1ccc(C(=S)N2CCOCC2)cc1)c1ccc([N+](=O)[O-])cc1[N+](=O)[O-] the AC50 was > 38 µM (inactive).
For Cc1c(N=C2C=CC(=O)c3ccccc32)c(=O)n(-c2ccccc2)n1C, the AC50 was 3.51 µM.
With CN1CCN(Cc2cc(=O)oc3ccc(Cl)cc23)CC1 the AC50 was > 38 µM (inactive).
For Cn1c(/N=C/c2c(O)ccc3ccccc23)nc2ccccc21, the AC50 was 10.6 µM.
CC(=O)Oc1ccc(/C=C2/C(=O)N(c3ccccc3)N=C2C)cc1 showed an AC50 of 4.09 µM.
In the case of Cc1ccc(NC(=O)c2cnc(SCC(=O)NCC3CCCO3)n(C)c2=O)cc1C (stereo unspecified), the AC50 is reported as > 38 µM (inactive).
Compound COc1ccc(OC)c(Nc2cc3ccccc3c(=O)[nH]2)c1 has an AC50 of 1.92 µM.
In the case of Cc1cc(C)n2nc(CNS(=O)(=O)c3c(F)c(F)c(F)c(F)c3F)nc2n1, the AC50 is reported as > 38 µM (inactive).
Work on O=C1C2=C(c3ccccc31)[N+](=O)C1CCCCC1N2[O-] (stereo unspecified) yielded an AC50 of 18.3 µM.
Work on CCOc1ccc(/C=C2\SC(=S)N(CCC(=O)Nc3ccccc3C(=O)O)C2=O)cc1 yielded an AC50 of 18.3 µM.
In the case of CCN(CC)c1ccc(/C=C2\C(=O)N(c3nnc(C)c(=O)[nH]3)N=C2C)cc1, the AC50 is reported as 5.67 µM.
With Cn1c(=O)c([N+](=O)[O-])c(Cl)c2ccccc21 the AC50 was > 38 µM (inactive).
Work on Cc1cc(=O)n(-c2ccccc2Cl)[nH]1 yielded an AC50 of 22.3 µM.
COC(=O)c1c(NC(=O)/C=C/C(=O)O)sc(C)c1-c1ccc(C(C)C)cc1 gave an AC50 of 11.6 µM.
In the case of Cc1ccc(N2C(=O)C(Cl)=C(N3CCN(C)CC3)C2=O)c(C)c1, the AC50 is reported as > 38 µM (inactive).
O=C(O)c1ccccc1-c1ccccc1C(=O)Nc1ccc(-c2nc3cc(Cl)ccc3o2)cc1 gave an AC50 of 9.29 µM.
With N[C@@H]1CCCC[C@H]1N.O=C(O)C(=O)O.[Pt] the AC50 was > 38 µM (inactive).
Compound COc1ccc(NC(=O)CSc2c3c(nc4cc(Cl)ccc24)CCCC3)cc1OC has an AC50 of 31.7 µM.
With CCOC(=O)N/N=C\c1ccc(OC(=O)c2ccco2)cc1 the AC50 was > 38 µM (inactive).
For Oc1ccc(Nc2nc(-c3ccc4ccccc4c3)cs2)cc1, the AC50 was > 38 µM (inactive).
In the case of CC1=NN(c2ccc(C)cc2C)C(=O)C1C(c1cccc(O)c1)C1C(=O)N(c2ccc(C)cc2C)N=C1C (stereo unspecified), the AC50 is reported as 3.51 µM.
In the case of CC(C)C[C@H](N)c1nnc(S(=O)(=O)Cc2ccc(F)cc2)o1, the AC50 is reported as > 38 µM (inactive).
With O=C(CCN1C(=O)/C(=C\c2ccccc2F)SC1=S)Nc1ccc(C(=O)O)c(O)c1 the AC50 was 14.7 µM.
In the case of N#Cc1ncc(Cc2ccccc2)nc1C#N, the AC50 is reported as > 38 µM (inactive).
For COc1cc(/C=C(\C#N)C(=O)c2c[nH]c3ccccc23)cc(OC)c1O, the AC50 was > 38 µM (inactive).
Work on O=C(Cc1cc(=O)[nH][nH]1)N/N=C/c1c(F)cccc1Cl yielded an AC50 of 30.7 µM.
With CCCc1[nH][nH]c(=O)c1C(c1cccc(Cl)c1)C(C#N)C#N (stereo unspecified) the AC50 was 9.32 µM.
With CCOc1cc(/C=C2/C(=N)N3C(=NC2=O)SN=C3S(=O)(=O)C(C)C)ccc1OC(=O)c1ccco1 the AC50 was > 38 µM (inactive).
In the case of COC(=O)c1ccc(C(c2c(C)[nH][nH]c2=O)c2c(C)[nH][nH]c2=O)cc1, the AC50 is reported as > 38 µM (inactive).
With O=C(O)c1ccc([N+](=O)[O-])c2c1C(=O)c1ccccc1C2=O the AC50 was > 38 µM (inactive).
With O=C(Oc1ccc(Br)cc1C(=S)N1CCCCC1)c1cc([N+](=O)[O-])cc([N+](=O)[O-])c1 the AC50 was > 38 µM (inactive).
In the case of CCN(c1ccccc1)c1cc2ccccc2c(=O)[nH]1, the AC50 is reported as > 38 µM (inactive).
CN(Cc1ccc(Cl)cc1)C(=O)CCl gave an AC50 of 10.2 µM.
With Cc1[nH][nH]c(=O)c1C(c1ccc(Cl)cc1)c1c(C)[nH][nH]c1=O the AC50 was 18.1 µM.
C/C(CC(=O)Nc1cc(C)ccn1)=N\NC(=O)c1ccncc1 showed an AC50 of 37.4 µM.
In the case of Cc1nc2ccccc2c2c1C(=O)NC2=O, the AC50 is reported as > 38 µM (inactive).
O=C1C=C(Nc2cccc3cccnc23)c2ccccc2C1=O gave an AC50 of 24.2 µM.
With Cc1noc2ncnc(Sc3ccccc3Cl)c12 the AC50 was > 38 µM (inactive).
Compound O=c1[nH]c(CCl)nc2cc(-c3ccc(F)cc3)sc12 has an AC50 of 11.9 µM.
Compound N#CC1=C(N)Oc2n[nH]c(-c3cccs3)c2C1c1cccs1 (stereo unspecified) has an AC50 of 9.22 µM.
With O=C1C=C(NCc2ccccc2)c2ccccc2C1=O the AC50 was 5.91 µM.
With CCOC(=O)C1CCN(c2nc(N)c3c(N)nc(SCC(=O)O)cc3c2C#N)CC1 the AC50 was > 12 µM (inactive).
With O=C1/C(=C/c2cccc([N+](=O)[O-])c2)CCc2ccccc21 the AC50 was 11.2 µM.
In the case of N#CC1=C(N)C(C#N)(C#N)[C@H](c2c(F)cccc2F)[C@H]2CC3(CC=C12)OCCO3, the AC50 is reported as > 38 µM (inactive).
CC(=O)Oc1ccc(N(C(C)=O)S(=O)(=O)c2ccc3ccccc3c2)cc1Br gave an AC50 of 29.5 µM.
In the case of N#C/C(=C\c1ccc(O)c([N+](=O)[O-])c1)c1nc2ccccc2s1, the AC50 is reported as 33.8 µM.
With Cc1ccc(C(c2cc(Cl)c3cccnc3c2O)N2CCN(C)CC2)cc1 (stereo unspecified) the AC50 was 19.3 µM.
In the case of Cc1[nH]nc2c1C(c1ccc(-c3ccc(Cl)cc3)o1)C(C#N)=C(N)O2 (stereo unspecified), the AC50 is reported as 39.1 µM.
Work on CCOc1cc(C2C(C#N)=C(N)Oc3n[nH]c(-c4ccccc4)c32)ccc1O (stereo unspecified) yielded an AC50 of 20.6 µM.
With COc1ccc(-c2csc(Nc3ccc(O)cc3)n2)cc1 the AC50 was > 38 µM (inactive).
For Nc1ccc2nc(N3CCOCC3)sc2c1, the AC50 was > 38 µM (inactive).
In the case of O=C1C(Cl)=C(Nc2ccc3cn[nH]c3c2)C(=O)c2ccccc21, the AC50 is reported as 3.75 µM.
With CN1c2ccc(C=O)c3c(C=O)ccc(c23)N(C)C1(C)C the AC50 was > 38 µM (inactive).
CCCC1C(C#N)=C(N)Oc2n[nH]c(C(C)(C)C)c21 (stereo unspecified) gave an AC50 of 1.7 µM.
O=C(N/N=C/c1cc(Cl)cc([N+](=O)[O-])c1O)c1ccccc1NS(=O)(=O)c1cccs1 gave an AC50 of 22.6 µM.
O=C(O)/C=C/C(=O)Nc1ccc(SC(F)(F)C(F)(F)C(F)(F)F)cc1 gave an AC50 of 7.99 µM.
With O=c1oc2cc(Oc3c([N+](=O)[O-])cc(C(F)(F)F)cc3[N+](=O)[O-])ccc2c2c1CCCC2 the AC50 was > 38 µM (inactive).
In the case of Cc1c(C#N)c(NC(=O)CCl)n(Cc2cccs2)c1C, the AC50 is reported as 8.86 µM.
In the case of COc1ccc(NC(=O)/C(C#N)=C/c2ncc([N+](=O)[O-])n2C)c(OC)c1, the AC50 is reported as > 38 µM (inactive).
With CCCCCCCCCCOC(=O)Cn1c(COc2ccc(OC)cc2)[n+](C)c2ccccc21 the AC50 was 8.31 µM and 8.42 µM.
In the case of COc1ccc(/C=C2/C(=O)N(c3ccccc3)N=C2C)c(OC)c1, the AC50 is reported as 18.5 µM.
CCc1nnc(NC(=O)c2nc(S(=O)(=O)Cc3ccccc3)ncc2Cl)s1 showed an AC50 of 31.2 µM.
Work on Cc1c(-c2nn(C)c(=O)c3ccccc23)oc2ccc(F)cc2c1=O yielded an AC50 of 3 µM.
CC1=NN(c2ccc(S(=O)(=O)O)cc2Cl)C(=O)C1 showed an AC50 of 3.66 µM.
Work on CCSC1(SCC)N=C(N)C2(C#N)C(c3ccc(F)cc3)C12C#N (stereo unspecified) yielded an AC50 of 38.3 µM.
CCCc1[nH][nH]c(=O)c1C(c1ccc(Br)cc1)C(C#N)C#N (stereo unspecified) gave an AC50 of 32.2 µM.
Cc1cc(=O)n(C2CCS(=O)(=O)C2)[nH]1 (stereo unspecified) gave an AC50 of 3.63 µM.
With COc1ccc(N2C(=O)CSC23C(=O)N2c4c(cccc43)C(C)=CC2(C)C)cc1 (stereo unspecified) the AC50 was 30.8 µM.
For O=C(NC1CCCCC1)C(c1cccnc1)N(C(=O)CCl)c1cccc(Cl)c1 (stereo unspecified), the AC50 was 3 µM.
In the case of CC(=O)N(C)Cc1ccc(C(=O)CCl)cc1, the AC50 is reported as > 38 µM (inactive).
In the case of CS(=O)(=O)c1nc(-c2ccccc2)cc(C(F)(F)F)n1, the AC50 is reported as > 38 µM (inactive).
